Assay [1] has as its system HIV-1 RT mutant E138K/M184V. Briefly: single round infection assay, E138K/M184V. It counts as cell-based. Conditions: for fold-change of IC50 of the mutant relative to WT: E138K/M184V vs WT; for IC50: ± SD, n=4. Here is the method:
(§1) The human osteosarcoma cell line, HOS, was obtained from Dr. Richard Schwartz (Michigan State University, East Lansing, MI) and grown in Dulbecco’s modified Eagle’s medium (Invitrogen, Carlsbad, CA) supplemented with 5 % (v/v) fetal bovine serum, 5 % newborn calf serum, and penicillin (50 units/ml) plus streptomycin (50 µg/ml; Quality Biological, Gaithersburg, MD). Virion production and single-round infectivity assays were used to determine antiviral activity (IC50 values) of the compounds as previously described.
(§2) pNLNgoMIVR-ΔEnv.LUC has been described previously. The RT open reading frame was removed from pNLNgoMIVR-ΔEnv.LUC (digestion with SpeI and SalI) and inserted between the SpeI and SalI sites of pBluescript II KS+. Using that construct as the wild-type template, we prepared the following HIV-1 RT mutants using the QuikChange II XL (Stratagene, La Jolla, CA) site-directed mutagenesis protocol kit: L100I, K103N, Y181C, Y188L, H221Y, K103N/Y181C, G190A, G190S, M230L, P236L, L100I/K103N, K103N/P225H, V106A/G190A/F227L, V106A, L234I, V106A/F227L, V106A/L234I, V106A/F227L/L234I, E40K, D67E, K101E, V111A, E138K, M184I, M184V, K101E/M184I, K101E/M184V, E138K/M184I, E138K/M184V, K101P, Y181I, and K101P/V179I. The following sense oligonucleotides were used with matching cognate antisense oligonucleotides (not shown) (Integrated DNA Technologies, Coralville, IA) in the mutagenesis: L100I, 5′-[…]-3′; L100I 2-103, 5′-[…]-3′; K103N, 5′-[…]-3′; Y181C, 5′-[…]-3′; Y188L, 5′-[…]-3′; H221Y, 5′-[…]-3′; G190A, 5′-[…]-3′; G190S, 5′-[…]-3′; P225H, 5′-[…]-3′; F227, 5′-[…]-3′; M230L, 5′-[…]-3′; P236L, 5′-[…]-3′; V106A, 5′-[…]-3′; L234I, 5′-[…]-3′; E40K, 5′-[…]-3′; D67E, 5′-[…]-3′; K101E, 5′-[…]-3′; V111A, 5′-[…]-3′; E138K, 5′-[…]-3′; M184I, 5′-[…]-3′; M184V, 5′-[…]-3′; K101P, 5′-[…]-3′; Y181I, 5′-[…]-3′; K101P/V179I, 5′-[…]-3′. The double mutants K103N/Y181C, K103N/P225H, and L100I/K103N were made using the previously generated K103N mutant and the appropriate oligonucleotides to add the second mutation, Y181C, P225, and L100I respectively. The double mutants V106A/F227L and V106A/L234I were prepared using the previously generated V106A mutant and the appropriate oligonucleotides to add the second mutation, F227L and L234I, respectively. The double mutants K101E/M184I and K101E/M184V were constructed using the previously generated K101E mutant and the appropriate oligonucleotides to add the second mutation, M184I and M184V, respectively. The double mutants E138K/M184I and E138K/M184V were constructed using the previously generated E138K mutant and the appropriate oligonucleotides for the second mutation, M184I and M184V, respectively. The triple mutant V106A/F227L/L234I was made using the previously generated V106A/F227L double mutant and the appropriate oligonucleotides for the third mutation, L234I. The triple mutant V106A/G190A/F227L was constructed in a series of steps using the previously generated V106A mutant and the appropriate oligonucleotides for the second mutation, G190A, to generate the double mutant V106A/G190A, and then the triple mutant was made using double mutant V106A/G190A and oligonucleotides for the third mutation, F227L. The DNA sequence of each construct was verified by DNA sequence determination. The sequences encoding the mutant RTs were then subcloned into pNLNgoMIVR-ΔEnv.LUC (between the KpnI and SalI sites) to produce the mutant HIV-1 constructs. These DNA sequences were also checked independently by DNA sequence determination.
(§3) 10.1186/s12977-016-0244-2 The IC50 values (nM) of RPV and the RPV analogs were determined against the NNRTI resistant mutants were measured by using a single round infection assay, n = 4. The concentrations (nM) are measured by reductions in luciferase reporter activity followed by the standard deviations. […]

For the next assay, the system named is HIV-1 RT mutant G190S. Briefly: single round infection assay, G190S. The class given is cell-based. Conditions: Human immunodeficiency virus 1.
The subject of assay [2] is HIV-1 RT mutant E138K/M184I. Briefly: single round infection assay, E138K/M184I. It counts as cell-based. To be noted: for fold-change of IC50 of the mutant relative to WT: E138K/M184I vs WT.
The test system of assay [3] is HIV-1 RT mutant L100I/K103N. Briefly: single round infection assay, L100I/K103N. To be noted: for IC50: Human immunodeficiency virus 1, L100I/K103N, ± SD, n=4, limit of detection 100 nM; for fold-change of IC50 of the mutant relative to WT: L100I/K103N vs WT. It counts as cell-based. Here is the method: as §1, §2, §3
For assay [4], the system named is HIV-1 RT mutant V106A/G190A/F227L. Briefly: single round infection assay, V106A/G190A/F227L. It counts as cell-based. To be noted: for IC50: Human immunodeficiency virus 1; for fold-change of IC50 of the mutant relative to WT: V106A/G190A/F227L vs WT.
The test system of the next assay is WT HIV-1. Description: single round infection luciferase assay, WT HIV-1. The class given is cell-based. To be noted: Human immunodeficiency virus 1.
The test system of the next assay is HIV-1 RT mutant P236L. Description: single round infection assay, P236L. It counts as cell-based. Conditions: for IC50: Human immunodeficiency virus 1.
The next assay has as its system HIV-1 RT mutant M230L. Briefly: single round infection assay, M230L. It counts as cell-based. To be noted: for fold-change of IC50 of the mutant relative to WT: M230L vs WT; for IC50: ± SD, n=4, limit of detection 100 nM.
Assay [5] deals with HIV-1 RT mutant K103N/P225H. Description: single round infection assay, K103N/P225H. The class given is cell-based. Conditions: for IC50: Human immunodeficiency virus 1; for fold-change of IC50 of the mutant relative to WT: K103N/P225H vs WT.
Assay [6] deals with HIV-1 RT mutant K101P/V179I. Description: single round infection assay, K101P/V179I. The class given is cell-based. To be noted: Human immunodeficiency virus 1.
A further assay has as its system HIV-1 RT mutant Y181C. More on the design: method as in PMID 23217210. Conditions: previous study; cited from earlier work.
A further assay has as its system HIV-1 RT mutant H221Y. More on the design: method as in PMID 23217210. To be noted: previous study; cited from earlier work.
The next assay concerns HIV-1 RT mutant D67E. Briefly: single round infection assay, D67E. The class given is cell-based. Conditions: for fold-change of IC50 of the mutant relative to WT: D67E vs WT; for IC50: ± SD, n=4.
[7] abbreviates: Human immunodeficiency virus 1, D67E.
[8] abbreviates: Human immunodeficiency virus 1, E138K/M184V.
[9] abbreviates: Human immunodeficiency virus 1, M230L.

Usually IC50 stands for the concentration that gives 50% inhibition. In the case of `CC(=O)c1ccc(Nc2nc(Nc3c(C)cc(/C=C/C#N)cc3C)nc3[nH]cnc23)cc1` [compound 14], the “fold-change of IC50 of the mutant relative to WT” value worked out at 2 in [1]; 3 in assay [2]; 31 in assay [3]; 2 in [4]; 7 with HIV-1 RT mutant M230L; 2 in assay [5]. Further, the “fold-change of IC50 of the mutant relative to WT” value in the assay on HIV-1 RT mutant D67E came out at 4. Besides, the half-inhibitory concentration (IC50) turned out to be 0.35 ± 0.05 nM in the assay on HIV-1 RT mutant G190S; 12.6 nM in assay [3]; 0.9 ± 0.18 nM in [4]; 0.41 ± 0.08 nM in the assay with WT HIV-1; 0.15 ± 0.05 nM in the assay on HIV-1 RT mutant P236L; 0.92 ± 0.14 nM in assay [5]. Also, the half-maximal inhibitory concentration (IC50) in [6] was > 100 nM; with HIV-1 RT mutant Y181C it was < 7 nM; in the assay on HIV-1 RT mutant H221Y, < 7 nM; in the assay on HIV-1 RT mutant D67E (D67E), 1.7 ± 0.21 nM; with HIV-1 RT mutant D67E (setting [7]), < 2.5 nM.

In the case of `Cc1cc(/C=C/C#N)cc(C)c1Nc1nc(Nc2ccc(C(F)(F)F)cc2)c2nc[nH]c2n1` [compound 15], the “fold-change of IC50 of the mutant relative to WT” value in assay [1] is < 2; in [2], < 2; in assay [3], 9; in [4], < 2; in the assay on HIV-1 RT mutant M230L, 10; with HIV-1 RT mutant D67E, 8. The IC50 in assay [1] (E138K/M184V) is 3.1 ± 0.4 nM; in assay [1] (setting [8]), < 6 nM; in the assay on HIV-1 RT mutant G190S it was 0.35 ± 0.05 nM; in [3], 15.5 nM; in [4], 2.6 ± 0.17 nM; in the assay with WT HIV-1 it was 1.7 ± 0.3 nM. For the same molecule, the IC50 in the assay on HIV-1 RT mutant P236L is 0.9 ± 0.08 nM; in the assay on HIV-1 RT mutant M230L (setting [9]), 16.8 nM; in assay [5], 1.5 ± 0.31 nM; in assay [6], > 100 nM; with HIV-1 RT mutant Y181C it was < 7 nM; with HIV-1 RT mutant H221Y it was < 7 nM. The same molecule showed a half-inhibitory concentration (IC50) in the assay on HIV-1 RT mutant D67E (setting [7]) of 13.1 nM.

For `COc1ccc(Nc2nc(Nc3c(C)cc(/C=C/C#N)cc3C)nc3[nH]cnc23)cc1` [compound 16], the “fold-change of IC50 of the mutant relative to WT” value was 10 in [1]; 5 in assay [2]; 11 in assay [3]; 10 in assay [4]; < 2 with HIV-1 RT mutant P236L (P236L vs WT); 15 in the assay with HIV-1 RT mutant M230L. Also, the “fold-change of IC50 of the mutant relative to WT” value (in assay [5]; in the assay with HIV-1 RT mutant D67E) was 16 throughout. Also, the IC50 was 1.7 ± 0.35 nM in [1] (E138K/M184V); < 2.5 nM in assay [1] (setting [8]); 0.17 ± 0.05 nM with HIV-1 RT mutant G190S; 1.7 ± 0.2 nM in assay [4]; 0.17 ± 0.01 nM with WT HIV-1; 0.2 nM in the assay on HIV-1 RT mutant P236L. Also, the IC50 is 2.7 ± 0.07 nM in assay [5]; > 100 nM in assay [6]; < 7 nM with HIV-1 RT mutant Y181C; < 7 nM in the assay with HIV-1 RT mutant H221Y; 2.7 ± 0.8 nM with HIV-1 RT mutant D67E (D67E); < 2.5 nM in the assay on HIV-1 RT mutant D67E (setting [7]).

In the case of `Cc1cc(/C=C/C#N)cc(C)c1Nc1nc(Nc2ccc(F)cc2)c2nc[nH]c2n1` [compound 17], the “fold-change of IC50 of the mutant relative to WT” value in assay [1] is given as < 2; in assay [2], 2; in assay [3] it was 29; in assay [4], 5; in the assay on HIV-1 RT mutant M230L it was 10; in [5], < 2. For the same molecule, the “fold-change of IC50 of the mutant relative to WT” value with HIV-1 RT mutant D67E is on record as 12. Moreover, the IC50 stood at 2.3 ± 0.02 nM in [1] (setting [8]); 0.74 ± 0.11 nM in the assay with HIV-1 RT mutant G190S; 5.2 ± 1.1 nM in [2] (Human immunodeficiency virus 1, E138K/M184I, ± SD, n=4); 63.4 nM in [3]; 10.8 ± 2.5 nM in assay [4]; 2.2 ± 0.4 nM in the assay with WT HIV-1. The IC50 in the assay with HIV-1 RT mutant P236L is 1.2 nM; with HIV-1 RT mutant M230L (setting [9]), 21.1 nM; in assay [5], 3.4 ± 0.2 nM; in [6] it was > 100 nM; in the assay on HIV-1 RT mutant Y181C, < 7 nM; in the assay on HIV-1 RT mutant H221Y, < 7 nM. In the assay with HIV-1 RT mutant D67E (setting [7]), this molecule gave an IC50 of 26 nM.

Regarding `Cc1cc(/C=C/C#N)cc(C)c1Nc1nc(Nc2ccc3scnc3c2)c2nc[nH]c2n1` [compound 21], the “fold-change of IC50 of the mutant relative to WT” value is 6 in assay [1]; 2 in assay [2]; 92 in assay [3]; 9 in assay [4]; 15 with HIV-1 RT mutant M230L; 3 in [5]. Moreover, the “fold-change of IC50 of the mutant relative to WT” value with HIV-1 RT mutant D67E was 9. Besides, the IC50 in [1] (E138K/M184V) was 2.3 ± 0.7 nM; in assay [1] (setting [8]) it was < 2.5 nM; with HIV-1 RT mutant G190S it was 0.2 ± 0.04 nM; in assay [3], 37.6 nM; in assay [4] it was 3.8 ± 1.6 nM; with WT HIV-1, 0.41 ± 0.1 nM. Besides, the half-maximal inhibitory concentration (IC50) is 0.32 ± 0.09 nM in the assay with HIV-1 RT mutant P236L; < 6.1 nM with HIV-1 RT mutant M230L (setting [9]); 6.1 ± 0.14 nM in the assay with HIV-1 RT mutant M230L (M230L); 1.4 ± 0.07 nM in assay [5]; > 100 nM in assay [6]; < 7 nM in the assay on HIV-1 RT mutant Y181C. The IC50 was < 7 nM in the assay with HIV-1 RT mutant H221Y and 3.6 ± 0.6 nM in the assay on HIV-1 RT mutant D67E (setting [7]).
